Experimental findings from ChEMBL document CHEMBL3994587, “An insight on synthetic and medicinal aspects of pyrazolo[1,5-a]pyrimidine scaffold” (Eur J Med Chem, 2017) are described below.

Structures are written as SMILES. In brackets after ≈: the same amount, converted by molar mass.

For test [1], the target named is T1, Estrogen receptor (Homo sapiens) (UniProt P03372).
T1 sequence (whole entry): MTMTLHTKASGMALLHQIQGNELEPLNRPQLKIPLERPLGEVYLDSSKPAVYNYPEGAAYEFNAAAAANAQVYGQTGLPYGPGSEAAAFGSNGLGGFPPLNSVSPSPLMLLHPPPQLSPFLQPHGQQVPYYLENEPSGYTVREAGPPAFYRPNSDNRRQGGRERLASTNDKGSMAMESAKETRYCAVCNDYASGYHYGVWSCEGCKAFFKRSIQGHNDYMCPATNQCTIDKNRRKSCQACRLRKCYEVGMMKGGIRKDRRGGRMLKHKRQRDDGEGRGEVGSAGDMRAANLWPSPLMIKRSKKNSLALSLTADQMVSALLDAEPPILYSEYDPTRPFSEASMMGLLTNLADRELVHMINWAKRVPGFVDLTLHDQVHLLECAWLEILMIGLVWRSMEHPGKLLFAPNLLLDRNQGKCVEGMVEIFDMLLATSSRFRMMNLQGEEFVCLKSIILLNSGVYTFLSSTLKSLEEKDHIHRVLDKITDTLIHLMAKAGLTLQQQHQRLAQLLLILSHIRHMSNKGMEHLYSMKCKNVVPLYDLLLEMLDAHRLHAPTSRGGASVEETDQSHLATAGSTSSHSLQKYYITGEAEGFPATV
Kind of test: Displacement of [3H]E2 from ERalpha (unknown origin) by radiometric assay relative to estradiol.

The target in test [2] is Estrogen receptor beta (Homo sapiens) (UniProt Q92731). Put plainly: Displacement of [3H]E2 from ERbeta (unknown origin) by radiometric assay relative to estradiol. (Loss of bound radioactivity is the signal in a displacement assay; it reports binding, not function.)
The next test concerns A549. Kind of test: Cytotoxicity against human A549 cells assessed as cell growth inhibition measured after 48 hrs by SRB assay. It counts as functional, cell-based. To be noted: A549, 48 h.
The next test relates to HepG2. Put plainly: Cytotoxicity against human HepG2 cells assessed as cell growth inhibition measured after 48 hrs by SRB assay. Type of test: functional, cell-based. To be noted: HepG2, 48 h. In general terms: Sulforhodamine B stains cellular protein and so reports cell mass.
The subject of the next test is MCF7. Kind of test: Cytotoxicity against human MCF7 cells assessed as cell growth inhibition measured after 48 hrs by SRB assay. It counts as functional, cell-based. The conditions noted are these: MCF7, 48 h.
For a further test, the system named is Candida albicans. Put plainly: Antifungal activity against Candida albicans RCMB 0005003 assessed as zone of inhibition at 30 ug/ml. To be noted: read-out: IZ. It counts as functional.
In another test the test system is Staphylococcus aureus. Kind of test: Antibacterial activity against Staphylococcus aureus RCMB 000108 assessed as zone of inhibition at 30 ug/ml. It counts as functional. To be noted: read-out: IZ.
For another test, the system named is Escherichia coli. Put plainly: Antibacterial activity against Escherichia coli RCMB 000106 assessed as zone of inhibition at 30 ug/ml. It counts as functional. To be noted: read-out: IZ.
The next test concerns Bacillus subtilis. Kind of test: Antibacterial activity against Bacillus subtilis RCMB 000109 assessed as zone of inhibition at 30 ug/ml. It counts as functional. The conditions noted are these: read-out: IZ.
Test [3] has as its system Syncephalastrum racemosum. Kind of test: Antifungal activity against Syncephalastrum racemosum 005004 assessed as zone of inhibition at 30 ug/ml. It counts as functional. The conditions noted are these: read-out: IZ.
The test system of the next test is Pseudomonas aeruginosa. Put plainly: Antibacterial activity against Pseudomonas aeruginosa RCMB 000103 assessed as zone of inhibition at 30 ug/ml. Type of test: functional. The conditions noted are these: read-out: IZ.
The subject of another test is Aspergillus fumigatus. Kind of test: Antifungal activity against Aspergillus fumigatus RCMB 002006 assessed as zone of inhibition at 30 ug/ml. It counts as functional. The conditions noted are these: read-out: IZ.
For another test, the system named is Geotrichum candidum. Kind of test: Antifungal activity against Geotrichum candidum 052008 assessed as zone of inhibition at 30 ug/ml. To be noted: read-out: IZ. Type of test: functional.
The species entered for the next test is Sus scrofa. Put plainly: Inhibition of PDE in pig blood assessed as suppression of ADP-induced platelet aggregation at 25 ug/ml by turbidimetric method relative to control.
Test [4] is filed under the species Bos taurus. Kind of test: Displacement of [3H]RO15-1788 from benzodiazepine receptor in bovine brain membranes at 10 uM relative to control. It counts as cell membranes. To be noted: Membrane.
The nature of test [5]: Displacement of [3H]RO15-1788 from benzodiazepine receptor in bovine brain membranes. It counts as cell membranes, Bos taurus, Membrane.
For test [6], the species on record is Bos taurus. Put plainly: Ratio of IC50 for displacement of [3H]RO15-1788 from benzodiazepine receptor in bovine brain membranes in absence of GABA to IC50 for displacement of [3H]RO15-1788 from benzodiazepine receptor in bovine brain membranes in presence of GABA. It counts as cell membranes.
The species named for the next test is Oryctolagus cuniculus. Kind of test: Potency index, ratio of theophylline IC50 to compound IC50 for inhibition of PDE in rabbit lung homogenates using [8-3H]cAMP as substrate measured 3 times between 3 to 12 mins. It counts as tissue-based.
The species named for test [7] is Bos taurus. Put plainly: Potency index, ratio of theophylline IC50 to compound IC50 for inhibition of PDE in beef heart homogenates using [8-3H]cAMP as substrate measured 3 times between 3 to 12 mins. It counts as tissue-based.
A short description of test [8]: Displacement of [3H]RO15-1788 from benzodiazepine receptor in recombinant bovine brain membranes expressed in HEK293 cells after 1 hr. It counts as cell-based, Bos taurus, Membrane.
The target of test [9] is T2, Corticotropin-releasing factor receptor 1 (Homo sapiens, UniProt P34998).
T2 sequence (P34998 whole entry): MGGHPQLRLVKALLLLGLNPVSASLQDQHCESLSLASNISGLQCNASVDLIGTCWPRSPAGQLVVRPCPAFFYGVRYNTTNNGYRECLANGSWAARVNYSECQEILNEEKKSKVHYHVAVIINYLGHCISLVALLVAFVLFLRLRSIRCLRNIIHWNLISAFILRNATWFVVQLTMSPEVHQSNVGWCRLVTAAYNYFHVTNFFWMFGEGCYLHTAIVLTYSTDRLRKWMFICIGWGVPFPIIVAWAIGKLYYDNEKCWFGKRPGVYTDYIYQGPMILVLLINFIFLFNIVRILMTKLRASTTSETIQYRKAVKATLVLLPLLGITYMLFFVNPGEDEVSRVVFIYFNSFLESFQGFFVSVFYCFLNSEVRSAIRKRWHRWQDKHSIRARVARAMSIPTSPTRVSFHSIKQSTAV
Put plainly: Displacement of [125I-Tyr0]-CRF from recombinant human CRF1 receptor.

Chain of Estrogen receptor beta (Homo sapiens) (Q92731 whole entry): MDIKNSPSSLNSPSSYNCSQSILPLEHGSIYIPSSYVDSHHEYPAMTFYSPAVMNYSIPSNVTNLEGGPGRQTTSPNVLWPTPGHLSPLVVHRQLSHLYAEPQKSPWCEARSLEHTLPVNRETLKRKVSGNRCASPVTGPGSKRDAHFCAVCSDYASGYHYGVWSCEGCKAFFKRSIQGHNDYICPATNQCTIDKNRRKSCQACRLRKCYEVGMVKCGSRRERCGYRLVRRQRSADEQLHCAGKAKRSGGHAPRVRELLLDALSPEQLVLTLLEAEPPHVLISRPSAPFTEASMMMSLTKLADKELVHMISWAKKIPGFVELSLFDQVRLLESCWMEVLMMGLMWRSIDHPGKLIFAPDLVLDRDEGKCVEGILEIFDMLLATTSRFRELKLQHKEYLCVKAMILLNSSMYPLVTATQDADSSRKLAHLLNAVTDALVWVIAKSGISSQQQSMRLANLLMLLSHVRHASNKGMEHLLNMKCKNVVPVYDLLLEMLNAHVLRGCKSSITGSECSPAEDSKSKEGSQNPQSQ

For the compound `Oc1ccc(-c2c(-c3ccccc3)nn3cccnc23)cc1`, the relative binding affinity (RBA) in test [1] came out at 0.007; in [2] it was 0.023.
On to `COc1ccc(Nc2nn3c(O)cc(C)nc3c2C(=O)Nc2ccccc2)cc1`, for which the half-maximal inhibitory concentration (IC50) was found to be 5 µg/mL (≈ 12.8 µM) with A549, 4 µg/mL (≈ 10.3 µM) with HepG2 and 4.6 µg/mL (≈ 11.8 µM) with MCF7.
For `Nc1nn2c(-c3cccs3)cc(-c3cccs3)nc2c1/N=N/c1ccccc1`, the zone of inhibition at 30 µg/mL amounted to 10 mm with Candida albicans; 15.3 mm in the test on Staphylococcus aureus; 14.9 mm in the test on Escherichia coli; 17.9 mm in the test on Bacillus subtilis; 8.2 mm in test [3]; 9.3 mm in the test with Pseudomonas aeruginosa. Moreover, the zone of inhibition at 30 µg/mL in the test with Aspergillus fumigatus is 15.2 mm; in the test on Geotrichum candidum, 11.3 mm.
Take `Cc1ccc(/N=N/c2c(N)nn3c(-c4ccco4)cc(-c4ccco4)nc23)cc1`: the zone of inhibition at 30 µg/mL was determined as 18.1 mm in the test on Candida albicans; 22.2 mm in the test with Staphylococcus aureus; 21.9 mm in the test on Escherichia coli; 23.3 mm in the test with Bacillus subtilis; 14.8 mm in test [3]; 18.5 mm with Pseudomonas aeruginosa. Moreover, the zone of inhibition at 30 µg/mL with Aspergillus fumigatus was 21.8 mm; with Geotrichum candidum it was 19.5 mm.
Turning to `CCOC(=O)c1cnc2c(Br)cnn2c1N`, the inhibition in the test filed under Sus scrofa stood at 67%.
Regarding `Oc1ccc(-c2nn3cccnc3c2-c2ccccc2)cc1`, the values for the relative binding affinity (RBA) in test [1] and in [2] were 0.01 and 0.05, respectively.
Turning to `CCC(C)n1ncn(-c2ccc(N3CCN(c4ccc(OCC5COC(Cn6cncn6)(c6ccc(Cl)cc6Cl)O5)cc4)CC3)cc2)c1=O` (configuration not stated) [ITRACONAZOLE], the zone of inhibition at 30 µg/mL came to 25.2 mm with Candida albicans, 23.9 mm in [3], 27.4 mm in the test on Aspergillus fumigatus and 24.2 mm in the test on Geotrichum candidum.
In turn, `COc1ccc(-c2cnn3c(=O)c(-c4ccsc4)c[nH]c23)cc1` came in with an inhibition in the test listed under Bos taurus [4] of 92%. The compound also gave a Ki in [5] of 42.2 nM. In the test listed under Bos taurus [6], the Ratio IC50 is 1.25.
`O=c1c(-c2ccsc2)c[nH]c2c(-c3ccsc3)cnn12` had an inhibition in the test listed under Bos taurus [4] of 100%. This compound gave a Ki in test [5] of 16.3 nM. Besides, the Ratio IC50 in the test listed under Bos taurus [6] worked out at 1.3.
In the case of `Cc1cc(NCCO)n2nccc2n1`, the Ratio IC50 in the test filed under Oryctolagus cuniculus was found to be 0.5; in the test filed under Bos taurus [7], 3.7.
For the compound `Clc1ccccc1C(c1ccccc1)(c1ccccc1)n1ccnc1` [CLOTRIMAZOLE], the zone of inhibition at 30 µg/mL in the test with Candida albicans worked out at 20.8 mm; in test [3], 21.4 mm; in the test on Aspergillus fumigatus it was 26.3 mm; in the test with Geotrichum candidum, 23.2 mm.
As to `CN1C(=O)CN=C(c2ccccc2)c2cc(Cl)ccc21` [DIAZEPAM], the Ki in [8] came out at 10 nM.
For the compound `CCC(CC)Nc1cc(C)nc2c(-c3ccc(C)cc3Cl)c(C)nn12`, the inhibitory constant (Ki) in test [9] amounted to 1.5 nM.

As usually defined, the IC50 is the midpoint of a concentration-inhibition curve. As a reminder, the inhibition is the percentage by which the read-out fell short of the control. As usually defined, the Ki is the dissociation constant of the complex between target and ligand, obtained from inhibition or displacement.
